According to US6740637B1, “Chlorophyll and bacteriochlorophyll derivatives, their preparation and pharmaceutical compositions comprising them” (priority 1998, dated 2004):
“Also recorded” adds a separate entry of the source.

Assays:
[1] = tested on: Herpes simplex virus-1 (in infected Vero cells); assay: PDT of HSV-1 in infected Vero cells, plaque assay; format: cell-based, Herpes simplex virus type 1
Protocol: Vero cells (Kidney African Green Monkey cells) were grown in DMEM+F12 medium buffered with 25 mM HEPES supplemented with 10% foetal bovine serum (FBS).Herpes simplex virus type 1 (HSV-1) was isolated from the eye of a patient with dentritic keratitis and maintained in culture.
For viral infection Vero cells (2×10^4/well) were cultured at 37° C. for 2 days in 24 well microplates. The culture medium was replaced with fresh medium containing 2% FBS and the cells infected with HSV-1 (200 μl) at multiplicity of infection (MOI) of 1-3. The cells were further incubated at 37° C. for 3 days. The medium was collected and centrifuged for 5 min in a clinical centrifuge to remove cells and cell debris. The concentration of viral particle was determined as described below and the suspension was aliquoted and kept at −80° C. until used.
Vero cells were inoculated with 10 fold dilutions of HSV-1 and cultured for 2 h at 37° C. The medium was then replaced with fresh DMEM containing 2% FBS and 0.7% methylcellulose and the cells were further incubated for 3 days. The overlayer was then decanted and the cells fixed and stained with crystal violet. Virus induced plaques were manually counted and plaque forming units (PFU/ml) were calculated.
Vero cells were infected with HSV-1 and incubated for four hours. Cells were then further incubated in dark for 1 h without or with Chl-Ser at the indicated concentrations. Cells were then washed three times with medium and immediately illuminated for 10 min. Subsequently the cells were incubated for 3 days for viral multiplication and media collected for quantitation. The appropriate controls described above were included in each experiment.

[2] = tested on: M2R mouse melanoma cells; assay: Photodynamic toxicity to melanoma cell monolayer: morphology and Propidium Iodide staining; format: cell-based; settings: 4×10^−6M pigment, 10 min irradiation at 670 nm (light source A), examined 3 h later
Protocol: The photodynamic effect of Chlidea and Chla-L-Ser-OMe conjugate on melanoma cells in culture was tested as follows: M2R mouse melanoma cells as monolayers (to 100% confluence) were treated with the pigments Chla, Chlidea and Chla-L-Ser-OMe for 30 minutes. Subsequently the cultures were irradiated for 10 minutes from the top with a 5mW GaAs diode laser at 670 nm (light source A), a 150W Xenon lamp at 5000 μEinstein/cm^2 (light source B), or a 90W halogen lamp at 1500 μEinstein (light source C). The control groups included untreated cells, pigment- treated cells that were kept in the dark and irradiated untreated cells. Three hours after irradiation, the changes in cell morphology due to irradiation were examined by phase contrast microscopy.
Evaluation of the cytolytic activity of the various Chl and Bchl derivatives was carried out by assessing cell death in the photodynamically treated area of the monolayer by staining of the cells with, and monitoring the red fluorescence of, Propidium Iodide ([2,7-diamino-9-phenyl-10-(diethylamino-propyl)-phenathridinium iodide meth-iodide]) (PID) which is excluded from intact/live cells and selectively accumulates in nuclei of damaged cells. Examination of fluorescing nuclei in the stained culture was done by fluorescence microscopy (Yeh, 1981). […]

[3] = tested on: B. Subtilis; format: cell-based, Bacilus Subtilis
Protocol: (§1) 1. Preincubation: Bacteria or viruses were preincubated in the absence (untreated control) or presence of increasing concentration of photosensitizer for 1-2 h at room temperature or 37° C. in the dark.
(§2) 2. Illumination: One set of untreated control and one set of sensitizer treated samples were exposed to light for 5-10 min. An identical group was kept in the dark (dark control).
(§3) 3. Viability: samples of the controls and experimental groups were subjected for quantitation of survival and viability was calculated as per cent of untreated control.
(§4) The light source for illumination was a 250W halogen lamp. The light was focused on a glass support and filtered to eliminate light below 630 nm. The light intensity at the target level was 1500 μEinstein/cm^2. Illumination for Bchl-Ser against S. aureus was performed as described Example 17 herein.
(§5) Stocks of bacteria (S. aureus, B. subtilis, E. coli) were preserved on solid LB agar slants at 4° C. Two hours prior to the experiment, bacteria were transferred to liquid LB media and grown at 37° C. with continuous shaking. P. Acnes (ATCC-CR 6919) bacteria were grown on agar 1053 reinforced clostridial medium (Oxoid CM 149 ) and incubated at 37° C. […]
(§6) Aliquots (20 or 30 μl) of bacterial suspensions were plated on LB agar plates for 24 h at 37° C. […] Colonies were counted and per cent viability was calculated from untreated control. […]

[4] = tested on: Propionibacterium Acnes (under aerobic conditions); format: cell-based
Protocol: as §1, §2, §3, §4
(§7) Stocks of bacteria (S. aureus, B. subtilis, E. coli) were preserved on solid LB agar slants at 4° C. Two hours prior to the experiment, bacteria were transferred to liquid LB media and grown at 37° C. with continuous shaking. P. Acnes (ATCC-CR 6919) bacteria were grown on agar 1053 reinforced clostridial medium (Oxoid CM 149 ) and incubated at 37° C. Culturing was performed in transparent culture jars made anaerobic with a gas generator envelop containing palladium catalyst, (Gas pack Plus Anaerobic system envelopes with Palladium catalyst, Beckton Dickenson Cockesyville Md. 21030 USA) (anaerobic culture) or in the open air (aerobic culture) The bacteria were incubated for 3-4 days before the experiments were carried out.
(§8) Aliquots (20 or 30 μl) of bacterial suspensions were plated on LB agar plates for 24 h at 37° C. ((S. aureus, B. subtilis, E. coli)) or on agar 1053 reinforced clostridial medium (P.acnes). Colonies were counted and per cent viability was calculated from untreated control.
(§9) P. Acnes bacteria at an optical density of A650 nm=0.014 were diluted in PBS to 1:10^−3 and divided into test tubes. Samples of 200 μl were either non treated or incubated with increasing concentration of Chl-Ser. Samples kept in dark were rapped with aluminum foil. All the tubes were placed in the anaerobic jar and incubated for 2 h at 37° C. The anaerobic chamber was placed on the glass support of the light source and samples were illuminated for 5 min. Test tubes with bacteria and sensitizers for the aerobic experiments were left in culture incubator for 2 h and exposed to light for 5 min in the open air. Samples of 20 μl from the anaerobic and aerobic experiments were taken out and spread onto agar plates and culture under anaerobic conditions. After 4 days of anaerobic incubation at 37° C. the colonies formed were counted and per cent viable cells calculated from control. Survival curves were determined based on 6-7 experiments. PDT experiments performed on S. Aureus with Bchl-Ser were conducted as described in Example 17 herein.

[5] = tested on: Propionibacterium Acnes (under anaerobic conditions); format: cell-based
Protocol: as §1, §2, §3, §4, §7, §8, §9

[6] = tested on: E.Coli; assay: PDT of bacteria with Chl-Ser, colony counting; format: cell-based, Escherichia Coli
Protocol: as §1, §2, §3, §4, §5, §6

C=Cc1c(C)c2cc3nc(c4c5[n-]c(cc6nc(cc1[n-]2)C(C)=C6CC)c(C)c5C(=O)[C@@H]4C(=O)OC)[C@@H](CCC(=O)OC[C@H](N)C(=O)OC)[C@@H]3C.[Mg+2] [Chla-L-Ser-OMe, L-seryl Methyl Ester Chlorophyllidea]
concentration of maximal toxicity [1]: ~500 nM | EC50 ([1]; 1 h with Chl-Ser, illuminated 10 min, read-out: half maximal effect on viral survival): ~150 nM | effect in the dark ([1]; same concentrations range, dark): no effect in the dark | cell damage: morphology and PID labeling after irradiation [2]: cell damage was confined to the photodynamically treated area; also recorded: all the remaining damaged cells in area (A) became PID labeled | effect in dark [3]: neither light alone nor Chl-Ser in dark showed any effect | colony counts with sensitizer alone in dark [4]: not different from those of untreated samples | LD50 ([4]; aerobic conditions, light 5 min): 10 nM | phototoxicity in the presence of light ([4]; concentration range of 0.1 to 1×10^−7M, aerobic): dose dependent phototoxicity | colony counts with sensitizer alone in dark [5]: not different from those of untreated samples | LD50 ([5]; anaerobic conditions, light 5 min): 30 nM | phototoxicity in the presence of light ([5]; concentration range of 0.1 to 1×10^−7M, anaerobic): dose dependent phototoxicity | concentration up to which phototoxicity could be detected, beyond which toxic in the dark [6]: ~5 µM | sensitivity to Chl-Ser and light [6]: significant resistance
